Test system: 817829-284-R-J1-PDC complex spheroid viability
Assay: Anticancer human tumor 817829-284-R-J1-PDC patient-derived colon adenocarcinoma cell line growth inhibition [POLQ]
Settings: for IC50: curve of first compound; for viability, T/C: stronger effect = lower value; active = viability on the fitted dose curve at most 10% of control; inactive = the rest
Method in brief: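 Complex spheroid viability model combining PDC tumour cells with endothelial (HUVEC) and MSC stromal cells. Novobiocin, ART-558 or RP6685 were tested singly and in combination with standard and investigational anticancer drugs. Each was titrated in half-log steps from near clinical Cmax, or from 10 microM where Cmax was unknown.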

[1] = second compound 0.0316 µM, first compound 0.0316 µM
[2] = second compound 0.0316 µM, first compound 0.1 µM
[3] = second compound 0.0316 µM, first compound 0.316 µM
[4] = second compound 0.0316 µM, first compound 1 µM
[5] = second compound 0.0316 µM, first compound 3.16 µM
[6] = second compound 0.0316 µM, first compound 10 µM
[7] = second compound 0.1 µM, first compound 0.0316 µM
[8] = second compound 0.1 µM, first compound 0.1 µM
[9] = second compound 0.1 µM, first compound 0.316 µM
[10] = second compound 0.1 µM, first compound 1 µM
[11] = second compound 0.1 µM, first compound 3.16 µM
[12] = second compound 0.1 µM, first compound 10 µM
[13] = second compound 0.316 µM, first compound 0.0316 µM
[14] = second compound 0.316 µM, first compound 0.1 µM
[15] = second compound 0.316 µM, first compound 0.316 µM
[16] = second compound 0.316 µM, first compound 1 µM
[17] = second compound 0.316 µM, first compound 3.16 µM
[18] = second compound 0.316 µM, first compound 10 µM
[19] = second compound 1 µM, first compound 0.0316 µM
[20] = second compound 1 µM, first compound 0.1 µM
[21] = second compound 1 µM, first compound 0.316 µM
[22] = second compound 1 µM, first compound 1 µM
[23] = second compound 1 µM, first compound 3.16 µM
[24] = second compound 1 µM, first compound 10 µM
[25] = second compound 3.16 µM, first compound 0.0316 µM
[26] = second compound 3.16 µM, first compound 0.1 µM
[27] = second compound 3.16 µM, first compound 0.316 µM
[28] = second compound 3.16 µM, first compound 1 µM
[29] = second compound 3.16 µM, first compound 3.16 µM
[30] = second compound 3.16 µM, first compound 10 µM
[31] = second compound 10 µM, first compound 0.0316 µM
[32] = second compound 10 µM, first compound 0.1 µM
[33] = second compound 10 µM, first compound 0.316 µM
[34] = second compound 10 µM, first compound 1 µM
[35] = second compound 10 µM, first compound 3.16 µM
[36] = second compound 10 µM, first compound 10 µM
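Note: spheroids exposed to compounds for 7 days.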
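Throughout, for viability, T/C: 100% = DMSO vehicle-treated spheroids.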

C#Cc1c(F)ccc2cc(O)cc(-c3ncc4c(N5CC6CCC(C5)N6)nc(OCC56CCCN5CC(F)C6)nc4c3F)c12 (stereo not given) + COC1C(OC(N)=O)C(O)C(Oc2ccc3c(O)c(NC(=O)c4ccc(O)c(CC=C(C)C)c4)c(=O)oc3c2C)OC1(C)C
7.86 µM: IC50 (second compound 1 µM)
8.11 µM: IC50 (second compound 10 µM)
inactive: viability, T/C [1] 88.1% | viability, T/C [2] 92.5% | viability, T/C [3] 135% | viability, T/C [4] 119% | viability, T/C [5] 102% | viability, T/C [6] 93.4% | viability, T/C [7] 95.6% | viability, T/C [8] 107% | viability, T/C [9] 102% | viability, T/C [10] 114% | viability, T/C [11] 89.2% | viability, T/C [12] 106% | viability, T/C [13] 88.1% | viability, T/C [14] 105% | viability, T/C [15] 87.5% | viability, T/C [16] 116% | viability, T/C [17] 127% | viability, T/C [18] 66.5% | viability, T/C [19] 110% | viability, T/C [20] 140% | viability, T/C [21] 109% | viability, T/C [22] 126% | viability, T/C [23] 101% | viability, T/C [24] 36.5% | viability, T/C [25] 117% | viability, T/C [26] 121% | viability, T/C [27] 99.1% | viability, T/C [28] 113% | viability, T/C [29] 113% | viability, T/C [30] 56.7% | viability, T/C [31] 87.3% | viability, T/C [32] 113% | viability, T/C [33] 144% | viability, T/C [34] 101% | viability, T/C [35] 132% | viability, T/C [36] 35.4%
> 10 µM: IC50 (second compound 0.0316 µM) | IC50 (second compound 0.1 µM) | IC50 (second compound 0.316 µM) | IC50 (second compound 3.16 µM)

CC1COCCN1c1cc(C2(O)CC3CCC(C2)O3)c2cnn(-c3ccn[nH]3)c2n1 (stereo not given) + COC1C(OC(N)=O)C(O)C(Oc2ccc3c(O)c(NC(=O)c4ccc(O)c(CC=C(C)C)c4)c(=O)oc3c2C)OC1(C)C
< 0.0316 µM: IC50 (second compound 0.0316 µM) | IC50 (second compound 0.1 µM) | IC50 (second compound 0.316 µM) | IC50 (second compound 1 µM) | IC50 (second compound 3.16 µM) | IC50 (second compound 10 µM)
active: viability, T/C [2] 10.7% | viability, T/C [3] 3.93% | viability, T/C [4] 3.7% | viability, T/C [5] 3.65% | viability, T/C [6] 2.96% | viability, T/C [8] 8.78% | viability, T/C [9] 4.49% | viability, T/C [10] 2.72% | viability, T/C [11] 3.01% | viability, T/C [12] 1.82% | viability, T/C [14] 8.28% | viability, T/C [15] 5.16% | viability, T/C [16] 3.2% | viability, T/C [17] 2.69% | viability, T/C [18] 2.57% | viability, T/C [20] 9.42% | viability, T/C [21] 4.54% | viability, T/C [22] 3.29% | viability, T/C [23] 3.01% | viability, T/C [24] 1.8% | viability, T/C [27] 4.65% | viability, T/C [28] 3.82% | viability, T/C [29] 2.76% | viability, T/C [30] 2.53% | viability, T/C [32] 9.85% | viability, T/C [33] 5.03% | viability, T/C [34] 4.12% | viability, T/C [35] 2.91% | viability, T/C [36] 2.64%
inactive: viability, T/C [1] 18.5% | viability, T/C [7] 29.2% | viability, T/C [13] 25.9% | viability, T/C [19] 24.7% | viability, T/C [25] 27.9% | viability, T/C [26] 10.5% | viability, T/C [31] 21.5%

CCc1cc2c(N3CCc4c(cc(Cn5ccnc5)cc4-c4cn(C)nc4C(F)(F)F)C3=O)cc(C)nc2c(OC)n1 + COC1C(OC(N)=O)C(O)C(Oc2ccc3c(O)c(NC(=O)c4ccc(O)c(CC=C(C)C)c4)c(=O)oc3c2C)OC1(C)C
inactive: viability, T/C [1] 82.7% | viability, T/C [2] 82.2% | viability, T/C [3] 77.6% | viability, T/C [4] 61.9% | viability, T/C [5] 51.9% | viability, T/C [6] 27.7% | viability, T/C [7] 115% | viability, T/C [8] 86.8% | viability, T/C [9] 68.5% | viability, T/C [10] 55.6% | viability, T/C [11] 47.9% | viability, T/C [12] 34.2% | viability, T/C [13] 76.8% | viability, T/C [14] 81.9% | viability, T/C [15] 68.4% | viability, T/C [16] 61.7% | viability, T/C [17] 41.7% | viability, T/C [18] 35.8% | viability, T/C [19] 95.6% | viability, T/C [20] 86.8% | viability, T/C [21] 78% | viability, T/C [22] 52% | viability, T/C [23] 41.9% | viability, T/C [24] 34.7% | viability, T/C [25] 87.5% | viability, T/C [26] 74.2% | viability, T/C [27] 75.3% | viability, T/C [28] 58.1% | viability, T/C [29] 58.3% | viability, T/C [30] 31.4% | viability, T/C [31] 81.2% | viability, T/C [32] 85.3% | viability, T/C [33] 82.6% | viability, T/C [34] 65.6% | viability, T/C [35] 44.5% | viability, T/C [36] 31.7%
2.3 µM: IC50 (second compound 10 µM)
3.1 µM: IC50 (second compound 0.0316 µM)
1.72 µM: IC50 (second compound 0.1 µM)
3.38 µM: IC50 (second compound 3.16 µM)
1.4 µM: IC50 (second compound 1 µM)
1.95 µM: IC50 (second compound 0.316 µM)

COc1cc2cc(C(=O)CCC(=O)O)sc2cc1OC + COC1C(OC(N)=O)C(O)C(Oc2ccc3c(O)c(NC(=O)c4ccc(O)c(CC=C(C)C)c4)c(=O)oc3c2C)OC1(C)C
inactive: viability, T/C [1] 81.3% | viability, T/C [2] 96.4% | viability, T/C [3] 83.3% | viability, T/C [4] 85.8% | viability, T/C [5] 94.6% | viability, T/C [6] 85.6% | viability, T/C [7] 97.8% | viability, T/C [8] 104% | viability, T/C [9] 89.7% | viability, T/C [10] 98.2% | viability, T/C [11] 49.2% | viability, T/C [12] 102% | viability, T/C [13] 75.7% | viability, T/C [14] 94.6% | viability, T/C [15] 88.9% | viability, T/C [16] 94.6% | viability, T/C [17] 112% | viability, T/C [18] 66.7% | viability, T/C [19] 88.2% | viability, T/C [20] 109% | viability, T/C [21] 71.1% | viability, T/C [22] 105% | viability, T/C [23] 83.9% | viability, T/C [24] 86.1% | viability, T/C [25] 85.5% | viability, T/C [26] 108% | viability, T/C [27] 98.7% | viability, T/C [28] 99.5% | viability, T/C [29] 110% | viability, T/C [30] 61.3% | viability, T/C [31] 106% | viability, T/C [32] 71.2% | viability, T/C [33] 90.9% | viability, T/C [34] 80.8% | viability, T/C [35] 117% | viability, T/C [36] 74.1%
> 10 µM: IC50 (second compound 0.0316 µM) | IC50 (second compound 0.1 µM) | IC50 (second compound 0.316 µM) | IC50 (second compound 1 µM) | IC50 (second compound 3.16 µM) | IC50 (second compound 10 µM)

O=C(Nc1ccc(O)c(NS(=O)(=O)c2ccc(F)cc2)c1)c1ccc(-c2ccccc2)cc1 + COC1C(OC(N)=O)C(O)C(Oc2ccc3c(O)c(NC(=O)c4ccc(O)c(CC=C(C)C)c4)c(=O)oc3c2C)OC1(C)C
7.4 µM: IC50 (second compound 10 µM)
7.15 µM: IC50 (second compound 0.1 µM)
6.35 µM: IC50 (second compound 1 µM)
inactive: viability, T/C [1] 114% | viability, T/C [2] 68.6% | viability, T/C [3] 95.2% | viability, T/C [4] 72.2% | viability, T/C [5] 72.9% | viability, T/C [6] 38.4% | viability, T/C [7] 74.9% | viability, T/C [8] 108% | viability, T/C [9] 79.2% | viability, T/C [10] 101% | viability, T/C [11] 84% | viability, T/C [12] 36% | viability, T/C [13] 91.5% | viability, T/C [14] 106% | viability, T/C [15] 90.4% | viability, T/C [16] 87.7% | viability, T/C [17] 68.9% | viability, T/C [18] 32.4% | viability, T/C [19] 100% | viability, T/C [20] 84.8% | viability, T/C [21] 107% | viability, T/C [22] 84.7% | viability, T/C [23] 66.6% | viability, T/C [24] 39.6% | viability, T/C [25] 91.9% | viability, T/C [26] 100% | viability, T/C [27] 103% | viability, T/C [28] 103% | viability, T/C [29] 68.5% | viability, T/C [30] 39.1% | viability, T/C [31] 82.8% | viability, T/C [32] 109% | viability, T/C [33] 99.6% | viability, T/C [34] 109% | viability, T/C [35] 66.7% | viability, T/C [36] 44.1%
6.53 µM: IC50 (second compound 3.16 µM)
7.82 µM: IC50 (second compound 0.0316 µM)
5.73 µM: IC50 (second compound 0.316 µM)

Reference: PubChem BioAssay AID1963839 (Molecular Pharmacology Branch, DTP, NCI, 2024)
